Measurements published in US20230142274A1 (SIMCERE PHARMACEUTICAL CO., LTD., priority 2020, published 2023).

Key:
CD-1 mouse plasma = assay: Plasma protein binding rate assay (equilibrium dialysis); type: in vitro ADME; conditions: compound 1 μM, equilibrium dialysis 6 hours at 37° C.
Procedure: 1. CD-1 mouse plasma (BioIVT)
1. Formulation of a buffer solution containing 100 mM sodium phosphate and 150 mM NaCl: An alkaline solution containing Na2HPO4 (14.2 g/L) and NaCl (8.77 g/L) was formulated with ultrapure water. An acidic solution containing NaH2PO4 (12.0 g/L) and NaCl (8.77 g/L) was formulated with ultrapure water. The alkaline solution was titrated with the acidic solution until the pH value was 7.4, thus formulating the buffer solution containing 100 mM sodium phosphate and 150 mM NaCl.
2. Preparation of dialysis membrane: The dialysis membrane was immersed in ultrapure water for 60 minutes to separate the membrane into two pieces, then immersed in 20% ethanol for 20 minutes, and finally immersed in a buffer for dialysis for 20 minutes.
3. Preparation of plasma: Frozen plasma was thawed rapidly at room temperature. Thereafter, the plasma was centrifuged at 3220 g for 10 minutes at 4° C. to remove clots, and the supernatant was collected into a new centrifuge tube. The pH values of plasma were measured and recorded. The plasma with a pH value of 7 to 8 was used.
4. Formulation of compound-containing plasma samples: A 10 mM stock solution of the compound of the present disclosure or the positive control compound was diluted with DMSO to obtain a 200 μM working solution. 3 μl of the 200 μM working solution of the compound was added into 597 μl of mouse plasma to obtain a plasma sample with a final concentration of 1 μM.
5. Steps of equilibrium dialysis: The dialysis device was assembled according to the operating instructions. 120 μL of a plasma sample containing 1 μM compound was added on one side of the dialysis membrane, and an equal volume of dialysate (phosphate buffer solution) was added on the other side. Duplicate samples were set in the experiment. The dialysis plate was sealed and placed in an incubation device where the samples were incubated at 37° C. in an atmosphere containing 5% CO2 for 6 hours with a rotational speed of about 100 rpm. After the incubation was complete, the sealing membrane was removed. 50 μl of samples were respectively aspirated from the buffer solution side and the plasma side of each well and transferred into different wells of a new plate. 50 μl of blank plasma was added into the sample obtained from the phosphate buffer solution side, and an equal volume of blank phosphate buffer solution was added into the plasma sample, followed by the addition of 300 μl of acetonitrile containing the internal standard to precipitate protein. The sample was vortexed for 5 minutes and centrifuged at 3220 g for 30 minutes at 4° C. 100 μl of the supernatant was aspirated and transferred to the sample plate, mixed well with 100 μL of ultrapure water, and used for LC-MS/MS analysis.
The peak areas of the compounds on the buffer solution side and the plasma side were determined. The formula for calculating the plasma protein binding rate of the compound was as follows:
% Free rate=(the ratio of the peak area of the compound to the peak area of the internal standard on the buffer solution side/the ratio of the peak area of the compound to the peak area of the internal standard on the plasma side)×100
% Binding rate=100−% free rate

WI-38 cells = assay: Inhibition of human WI-38 embryonic lung cell proliferation (Cell-Titer Glo); type: cell-based; conditions: Homo sapiens, 72 h, 3 days incubation, read-out: Anti-Proliferative Activity Against WI-38 cells IC50
Summary of the method: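 WI-38 cells in EMEM with 10% FBS, seeded 24 h, then exposed to 10-point 3-fold compound dilutions (0.25% DMSO final) for 3 days at 37 °C, 5% CO2. Viability from intracellular ATP by Cell-Titer Glo luminescence; % inhibition normalised to top/bottom signals and IC50 fitted.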

SMILES	% Binding Rate (CD-1 mouse plasma)	IC50 (WI-38 cells)
COc1ccc(-c2ccc(-c3cnc([C@H]4CC[C@H](NC(=O)OC(C)C)CC4)s3)c([S@@](=N)(=O)C3CC3)c2)cn1 (stereo in doubt) [Example 94]	99.8%^	–
CC(C)OC(=O)Nc1ccc(-c2cnc([C@H]3CC[C@H](NC(=O)OC(C)C)CC3)s2)c(P(C)(C)=O)c1 [Example 1, isopropyl trans-N-[3-dimethylphosphoryl-4-[2-[4-(isopropoxycarbonylamino)cyclohexyl]thiazol-5-yl]phenyl]carbamate]	94%	> 25 µM
CC(C)OC(=O)Nc1ccc(-c2cnc([C@H]3CC[C@H](NC(=O)OC(C)C)CC3)s2)c(S(=O)(=O)C(C)C)c1 [Example 2, isopropyl trans-N-[4-[2-[4-(isopropoxycarbonylamino)cyclohexyl]thiazol-5-yl]-3-isopropylsulfonyl-phenyl]carbamate]	99.4%^	> 25 µM
CC(C)OC(=O)Nc1ccc(-c2cnc(C3CCC(NC(=O)OC(C)C)CC3)s2)c(S(=N)(=O)C(C)C)c1 (stereo not drawn) [Example 3, isopropyl trans-N-[4-[2-[4-(isopropoxycarbonylamino)cyclohexyl]thiazol-5-yl]-3-(isopropylsulfonimidoyl)phenyl]carbamate]	97%	> 25 µM
CC(C)OC(=O)Nc1ccc(-c2cnc(C3CCC(NC(=O)OC(C)C)CC3)s2)c([S+]([O-])C(C)C)c1 (stereo not drawn) [Example 32, isopropyl trans-N-[4-[2-[4-(isopropoxycarbonylamino)cyclohexyl]thiazol-5-yl]-3-isopropylsulfinyl-phenyl]carbamate]	99%	23 µM
CC(C)OC(=O)Nc1ccc(-c2cnc([C@H]3CC[C@H](NC(=O)OC(C)C)CC3)s2)c(S(=O)(=O)C2CC2)c1 [Example 33, isopropyl trans-N-[3-cyclopropylsulfonyl-4-[2-[4-(isopropoxycarbonylamino)cyclohexyl]thiazol-5-yl]phenyl]carbamate]	99%	> 25 µM
Cc1cc(Nc2ccc(-c3cnc([C@H]4CC[C@H](NC(=O)OC(C)C)CC4)s3)c(P3(=O)CCCC3)c2)n[nH]1 [Example 47, isopropyl trans-N-[4-[5-[4-[(5-methyl-1H-pyrazol-3-yl)amino]-2-(1-oxidophospholan-1-yl)phenyl]thiazol-2-yl]cyclohexyl]carbamate]	99%	> 25 µM
Cc1cc(Nc2ccc(-c3cnc([C@H]4CC[C@H](NC(=O)OC(C)C)CC4)s3)c(S(=O)(=O)C3CC3)c2)n[nH]1 [Example 48, isopropyl trans-(4-(5-(2-(cyclopropylsulfonyl)-4-((5-methyl-1H-pyrazol-3-yl)amino)phenyl)thiazol-2-yl)cyclohexyl)carbamate]	99%	15.6 µM
Cc1cc(Nc2ccc(-c3cnc([C@H]4CC[C@H](NC(=O)OC(C)C)CC4)s3)c(S(=O)(=O)C3CC3)c2)nn1C [Example 49, isopropyl trans-(4-(5-(2-(cyclopropylsulfonyl)-4-((1,5-dimethyl-1H-pyrazol-3-yl)amino)phenyl)thiazol-2-yl)cyclohexyl)carbamate]	97%	> 25 µM
Cc1cc(Nc2ccc(-c3cnc(C4CCC(NC(=O)OC(C)C)CC4)s3)c(S(=N)(=O)C3CC3)c2)n[nH]1 (stereo not drawn) [Example 50, isopropyl trans-N-[4-[5-[2-(cyclopropylsulfonimidoyl)-4-]((5-methyl-1H-pyrazol-3-yl)amino]phenyl]thiazol-2-yl]cyclohexyl]carbamate]	96%	> 25 µM
CC(C)OC(=O)N[C@H]1CC[C@H](c2ncc(-c3ccc(Nc4cn(C)nn4)cc3S(=N)(=O)C3CC3)s2)CC1 (stereo partly shown) [Example 54]	95%	> 25 µM
CC(C)OC(=O)N[C@H]1CC[C@H](c2ncc(-c3ccc(Nc4n[nH]c5ccccc45)cc3S(=O)(=O)C3CC3)s2)CC1 [Example 56, isopropyl trans-(4-(5-(4-((1H-indazol-3-yl)amino)-2-(cyclopropylsulfonyl)phenyl)thiazol-2-yl)cyclohexyl)carbamate]	97%	> 25 µM
CC(C)OC(=O)N[C@H]1CC[C@H](c2ncc(-c3ccc(Nc4cc5ccccn5n4)cc3S(=O)(=O)C3CC3)s2)CC1 [Example 57, isopropyl trans-(4-(5-(2-(cyclopropylsulfonyl)-4-(pyrazolo[1,5-a]pyridin-2-ylamino)phenyl)thiazol-2-yl)cyclohexyl)carbamate]	99.9%^	> 25 µM
CC(C)OC(=O)N[C@H]1CC[C@H](c2ncc(-c3ccc(NC(=O)NCc4ccccc4)cc3S(=N)(=O)C3CC3)s2)CC1 (stereo partly drawn) [Example 65, isopropyl trans-(4-(5-(4-(3-benzylureido)-2-(cyclopropanesulfonimidoyl)phenyl)thiazol-2-yl)cyclohexyl)carbamate]	97%	> 25 µM
CC(C)OC(=O)Nc1ccc(-c2cnc([C@H]3CC[C@H](NC(=O)OC(C)C)CC3)s2)c(S(=N)(=O)C2CC2)c1 (stereo partly drawn) [Example 68, isopropyl trans-N-[3-(cyclopropylsulfonimidoyl)-4-[2-[4-(isopropoxycarbonylamino)cyclohexyl]thiazol-5-yl]phenyl]carbamate]	97%	> 25 µM
CC(C)OC(=O)NC1CCC(c2ncc(-c3ccc(Nc4ccc(F)cn4)cc3S(=N)(=O)C3CC3)s2)CC1 (stereo not drawn) [Example 81, isopropyl trans-N-[4-[5-[2-(cyclopropylsulfonimidoyl)]-4-[(5-fluoro-2-pyridyl)amino]phenyl]thiazol-2-yl]cyclohexyl]carbamate]	99.7%^	14 µM
Cc1cc(Nc2ccc(-c3cnc([C@H]4CC[C@H](NC(=O)OC(C)C)CC4)s3)c(S(=O)(=O)C3COC3)c2)n[nH]1 [Example 92, isopropyl trans-N-[4-[5-[4-[(5-methyl-1H-pyrazol-3-yl)amino]-2-(oxetan-3-ylsulfonyl)phenyl]thiazol-2-yl]cyclohexyl]carbamate]	98.8%^	19.5 µM
Cc1cc(Nc2ccc(-c3cnc([C@H]4CC[C@H](NC(=O)OC(C)C)CC4)s3)c(S(=N)(=O)C3CC3)c2)n(C)n1 (stereo partly drawn) [Example 98, isopropyl trans-(4-(5-(2-(cyclopropanesulfonimidoyl)-4-((1,3-dimethyl-1H-pyrazol-5-yl)amino)phenyl)thiazol-2-yl)cyclohexyl)carbamate]	99%	> 25 µM
Cc1cc(Nc2ccc(-c3cnc([C@H]4CC[C@H](NC(=O)OC(C)C)CC4)s3)c(P3(=O)CCC3)c2)n[nH]1 [Example 103, isopropyl trans-(4-(5-(4-((5-methyl-1H-pyrazol-3-yl)amino)-2-(1-oxophosphetan-1-yl)phenyl)thiazol-2-yl)cyclohexyl)carbamate]	98%	> 25 µM
